Test results from patent publication US9815883B2, “Inhibiting peptides derived from TREM-like transcript 1 (TLT-1) and uses thereof” (Institut National de la Sante et de la Recherche Medicale …, priority 2010, dated 2017).

Tested on: TREM-1 ligand expressed on resting or thrombin-activated human platelets
Experiment: Flow cytometry binding of FITC-labelled peptides to human platelets
Experimental: (B) Flow cytometry analysis of FITC-labelled LR17 (1 or 5 μg/mL) binding to TREM-1 ligand expressed on resting or thrombin-activated (5 UI/mL) human platelets is reversed by co-incubation with unlabelled LR17, sTLT-1 or LP17, a TREM-1 derived peptide.
Acid Citrate Dextrose blood samples were centrifuged (100 g, 10 min) to obtain Platelet-Rich Plasma. PRP was then centrifuged (550 g, 10 min) over a 36% (wt/vol) BSA gradient and platelets collected from the interphase before being washed in Tyrode's salts buffer (Sigma-Aldrich) supplemented with 5 mM EGTA. For activation, platelets were incubated for 30 minutes with 5 U/mL thrombin (Sigma-Aldrich) or 1 μg/mL E. Coli LPS (0111:B4, Sigma-Aldrich) at 37° C. and subsequently fixed with 2% (wt/vol) paraphormaldehyde (PFA, Sigma-Aldrich). Residual PFA was removed by two additional washing steps in Tyrode buffer. Activation was assessed by anti-CD62P (Beckman Coulter).
Isolated cells (neutrophils, monocytes or platelets) were blocked for aspecific binding with 10% human Ig (Sigma-Aldrich) for 1 hour on ice. Cells were incubated with recombinant soluble FITC-labelled TLT-1-peptides, FITC-labelled LP17 (or corresponding FITC-labelled scrambled peptides), PE-labelled anti-TREM-1 mAb (R&Dsystems), CD62P-FITC, CD66b-PE, CD45-PE, CD14-FITC (all from Beckman Coulter)

[1] = competition with unlabelled substance

## LQEEDAGEYGCMVDGAR (listed as Homo sapiens) [LR17]
FITC-labelled peptide 1 or 5 μg/mL, resting or thrombin-activated (5 UI/mL) platelets
  binding of FITC-labelled LR17 to platelets: binds both to resting and thrombin-activated platelets
[1]
  effect of co-incubation on FITC-labelled LP17 binding to platelets: decreased
  effect of co-incubation on FITC-labelled LR17 binding to platelets: reversed
